Assays:
[1] = In-use Stability Assay (HPLC) of pimavanserin 34 mg capsule contents in liquid/soft food vehicles; type: physicochemical; conditions: for Assay: ambient; for Time 0 (%) assay: time 0, average (n=6) accuracy/recovery
Experimental: Analytical HPLC Stability Study experiments (Example 1) were performed on Agilent 1200 Series, or equivalent; Waters XBridge C18 column, 5 μm 150×4.6 mm; mobile phase: Solvent A: 50 mM ammonium bicarbonate, pH 8.0; Solvent B: acetonitrile/methanol, 80:20 (v/v); Flow rate: 1 mL/min; Inj. Volume 20 μL; Autosampler Temp. 5° C.; column temperature: 40° C., detection UV at 210 nm; sample concentration (as free base) assay: 0.068 mg/mL, impurity: 0.68 mg/mL; standard concentration (as free base) 0.068 mg/mL; PLOQ Std. 0.05% of 0.68 mg/mL; SST solution, 1% of 0.68 mg/mL (impurities A, C, D, E, F, and G); diluent for standards 80/20 (v/v) ethanol/water; diluent for samples, ethanol; run time 40 min; gradient method: 0 min mobile phase A (90%) and mobile phase B (10%) to 30 min mobile phase A (0%), and mobile phase B (100%); then 30.1 min to 40 min mobile phase A (90%), mobile phase B (10%).
The stability of pimavanserin for administration via a nasogastric (NG) tube was assessed by sprinkling the content of one pimavanserin 34 mg capsule in water, applesauce, vanilla Ensure, and non-pulp orange juice. Samples were tested at time 0, 2, 4, and 24 hours after storage at ambient conditions. Samples were prepared in triplicate and average (n=6) accuracy/recovery results from the assay method were used at time 0.
For each sample, one capsule was weighed, and the content of the capsule dropped into a 500 mL volumetric flask containing the amount of vehicle specified in Table 1. The empty capsule shell was weighed and discarded. The flasks were gently swirled to ensure the capsule contents were visually incorporated with the vehicle. The flasks were kept at ambient temperature for each time point 2, 4, and 24 hours. Time 0 samples were processed immediately.
At the specified time point, a stir bar and approximately 450 mL of diluent were added to the flask. The samples were stirred vigorously for 2 hours, and then left on the bench overnight. The following day the flasks were sonicated for approximately 15-30 minutes. The stir bar was removed and rinsed carefully with diluent into the flask, and then the flask was diluted to volume with diluent and mixed well by inversion. An aliquot of each solution was centrifuged for 5 minutes at 10000 rpm. The supernatant was transferred to a HPLC vial and injected for analysis.

[2] = Nasogastric Tube Compatibility Study, assay (HPLC); type: physicochemical
Experimental: Analytical HPLC Compatibility Study experiments (Example 2) were performed on Agilent 1200 Series, or equivalent; Waters XBridge C18 column, 5 μm 150×4.6 mm; mobile phase: Solvent A: 50 mM ammonium bicarbonate, pH 8.0; Solvent B: acetonitrile/methanol, 80:20 (v/v); Flow rate: 1 mL/min; Inj. Volume 60 μL; Autosampler Temp.: 5° C.; column temperature: 40° C.; the pooled limit of quantitation was 0.05% of 0.68 mg/mL; detection UV at 210 nm; sample concentration (as free base) assay: 0.034 mg/mL, impurity: 0.34 mg/mL; standard concentration (as free base) 0.034 mg/mL; PLOQ Std. 0.05% of 0.34 mg/mL; SST solution, 1% of 0.34 mg/mL (Impurities A, C, D, E, F, and G); diluent for standards 0.1N HCl; diluent for samples 0.1N HCl; run time, 40 min; gradient method: 0 min mobile phase A (90%) and mobile phase B (10%) to 30 min mobile phase A (0%), and mobile phase B (100%); then 30.1 min to 40 min mobile phase A (90%), mobile phase B (10%).
Three samples of pimavanserin in water (n=3) were prepared as follows. The content of one capsule was dropped into a 100 mL bottle, and the empty capsule shell was discarded. Approximately 40 mL of water was added into the bottle, and the bottle was swirled until the contents were disintegrated. Syringes were secured approximately 1 meter above the benchtop, and the plungers were removed. The Hydromer coating on the weighted top of the NG tube was activated by submerging the weight assembly in water for 10 seconds. The NG tube was flushed with 20 mL of water, and remaining water in the syringe and the NG tube was expelled with the help of the syringe plunger. The weighted tip of the NG tube was placed into 100 mL volumetric flasks on the benchtop.
For each sample, the aqueous dispersion was slowly poured into the syringe, allowing it to drain through the NG tube under gravity into the 100 mL collection volumetric flask. The original bottle containing the aqueous suspension of pimavanserin capsules was rinsed twice with 15 mL of water into the same syringe/NG tube system. The dispersion remaining in the syringe and NG tube was expelled with the help of the syringe plunger. Each flask was diluted to volume with 0.33N HCl (to make a final 0.1 N HCl concentration in the flask). The samples were sonicated for 15 minutes with intermediate shaking. A stir bar was added to the flask and the solution was stirred for 2 hours. An aliquot of each solution was centrifuged for 5 minutes at 10000 rom. The supernatant was transferred to a HPLC vial and injected for impurity analysis.
Samples were prepared by transferring the stock solution using a 2.0 mL volumetric pipet into a 20 mL volumetric flask, diluted to volume with 0.1 N HCl, and mixed well by inversion. An aliquot of each solution was centrifuged for 5 minutes at 10000 rpm. The supernatant was transferred to a HPLC vial and injected for analysis.
A “control” sample was prepared following the sample preparation procedure described above except it was not passed through a syringe/NG system. The content of one capsule was dropped into a 100 mL volumetric flask, and the empty capsule shell was discarded. Next 70 mL of water was added into the flask and swirled until the contents were completely disintegrated. The flask was diluted to volume with 0.33 N HCl (to make final 0.1N HCl concentration). The sample was sonicated for 15 minutes with intermediate shaking. A stir bar was dropped into the flask, and the solution was stirred for 2 hours. An aliquot was taken and centrifuged for 5 minutes at 10000 rpm. The supernatant was transferred to a HPLC vial and injected for impurity analysis.

Assay ([1]; 34 mg capsule in Ensure 60 mL, T = 2 h): 100.3% | Assay ([1]; 34 mg capsule in Ensure 60 mL, T = 4 h): 100.7% | Assay ([1]; 34 mg capsule in Ensure 60 mL, T = 24 h): 98.1% | Assay ([1]; 34 mg capsule in applesauce 40 g, T = 2 h): 99.9% | Assay ([1]; 34 mg capsule in applesauce 40 g, T = 4 h): 97.7% | Assay ([1]; 34 mg capsule in applesauce 40 g, T = 24 h): 96.3% | Assay ([1]; 34 mg capsule in non-pulp orange juice 60 mL, T = 2 h): 99.2% | Assay ([1]; 34 mg capsule in non-pulp orange juice 60 mL, T = 4 h): 98.0% | Assay ([1]; 34 mg capsule in non-pulp orange juice 60 mL, T = 24 h): 98.3% | Assay ([1]; 34 mg capsule in water 40 mL, T = 2 h): 97.7% | Assay ([1]; 34 mg capsule in water 40 mL, T = 4 h): 95.6% | Assay ([1]; 34 mg capsule in water 40 mL, T = 24 h): 99.3% | Absolute Difference from Time 0 ([1]; Ensure, T = 2 h): 0.3% | Absolute Difference from Time 0 ([1]; Ensure, T = 4 h): 0.7% | Absolute Difference from Time 0 ([1]; Ensure, T = 24 h): 1.9% | Absolute Difference from Time 0 ([1]; applesauce, T = 2 h): 2.0% | Absolute Difference from Time 0 ([1]; applesauce, T = 4 h): 4.2% | Absolute Difference from Time 0 ([1]; applesauce, T = 24 h): 5.6% | Time 0 (%) assay ([1]; applesauce): 101.9% | Assay values difference from time 0 ([1]; individual capsules, up to 24 hours, all vehicles): ≤ 5% | Absolute Difference from Time 0 ([1]; orange juice, T = 2 h): 1.1% | Absolute Difference from Time 0 ([1]; orange juice, T = 4 h): 2.3% | Absolute Difference from Time 0 ([1]; orange juice, T = 24 h): 2.0% | Time 0 (%) assay ([1]; orange juice): 100.3% | stability in all vehicles ([1]; over 24 hours at ambient room temperature): acceptable | Time 0 (%) assay ([1]; vanilla Ensure): 100.0% | Absolute Difference from Time 0 ([1]; water, T = 2 h): 1.2% | Absolute Difference from Time 0 ([1]; water, T = 4 h): 3.3% | Absolute Difference from Time 0 ([1]; water, T = 24 h): 0.4% | Time 0 (%) assay ([1]; water): 98.9% | Assay (%) ([2]; 34 mg capsule in water passed through syringe/NG tube, sample N = 1): 92.2% | Assay (%) ([2]; 34 mg capsule in water passed through syringe/NG tube, sample N = 2): 92.7% | Assay (%) ([2]; 34 mg capsule in water passed through syringe/NG tube, sample N = 3): 96.3% | Assay (%) ([2]; NG Tube Control: capsule in water, not passed through syringe/NG system): 91.5% | difference of assay between control sample and mean of 3 NG tube samples ([2]; aqueous dispersion of 34 mg capsule): ≤ 2% | effect of in vitro administration through a NG tube on stability ([2]; capsule contents added to different vehicles): no effect | Assay Mean % (n = 6) ([2]; mean of NG tube samples): 93.8%
SMILES: CC(C)COc1ccc(CNC(=O)N(Cc2ccc(F)cc2)C2CCN(C)CC2)cc1 [Pimavanserin, N-(4-Fluorophenylmethyl)-N-(1-methylpiperidin-4-yl)-N′-(4-(2-methylpropyloxy)phenylmethyl)carbamide]
